# From patent publication US3932512A, “Antiviral 1,2,3,4-tetrahydro-1,-alkano naphthalenamine derivatives” (priority 1972, dated 1976)
# Like-named read-outs stand apart in the source and are kept apart here.
# Legend:
# influenza viruses = experiment: relative antiviral activity in vitro; type: cell-based; settings: words
# [1] = toxicity of in vitro active anti-myxovirus compounds in mice; settings: mouse, in vivo
# mice = experiment: as above
# [2] = tested on: influenza A2 virus Aichi/2/68; experiment: preventive control of influenza A2 in mice, compound I at different levels; type: in vivo, influenza A2 virus Aichi/2/68 (in Charles River white mice)
# Experimental: In the following experiment, compound I was tested at different levels for preventive control of influenza as follows:
# Charles River white mice, starting weight: 10-12 g;
# 12 mice per group (24 mice as control).
# Virus: Mice were inoculated intranasally with influenza
# A2 virus Aichi/2/68, with a titer of 2,88 LD50,
# Mice were divided into 5 groups and received
# day intraperitoneally, once a day for 16 days
# beginning one day prior to infection with the
# virus. Mice were weighed each day before inocula-
# tions and doses adjusted according to the actual
# weight of each animal. The active compound was
# suspended in phosphate buffered saline.
# Influenza (swine) = experiment: cells; type: cell-based
# Influenza A2 /Aichi/3/68 = experiment: in vitro anti-myxovirus activity, influenza A2 /Aichi/3/68, G-2 cells (% inhibition of hemadsorption); type: cell-based, Influenza A2 /Aichi/3/68 (human); settings: for inhibition at 40 µg/mL: 40 μg/ml; for inhibition at 30 µg/mL / inhibition at 50 µg/mL / inhibition at 60 µg/mL / inhibition at 70 µg/mL / inhibition at 80 µg/mL / inhibition at 90 µg/mL / inhibition at 100 µg/mL: Homo sapiens; for inhibition at 30 µg/mL: 30 μg/ml; for inhibition at 50 µg/mL: 50 μg/ml; for inhibition at 60 µg/mL: 60 μg/ml; for inhibition at 70 µg/mL: 70 μg/ml; for inhibition at 80 µg/mL: 80 μg/ml; for inhibition at 90 µg/mL: 90 μg/ml; for inhibition at 100 µg/mL: 100 μg/ml, read-out: % Inhibition
# [3] = cytotoxicity in G-2 cells; type: cell-based; settings: human
# Experimental: In preparing the compounds for testing, they were handled aseptically throughout. The compounds were dissolved in a minimum amount of a suitable solvent and the final dilutions were made up to the required volume in a complete culture medium used in assay and in concentration not exceeding the predetermined maximum non-toxic levels.
# The cell culture used in all primary in vitro anti-myxovirus assays was an established cell line of the human conjunctiva (G-2 cells). The cytotoxic studies of each of the compounds were performed prior to testing for antiviral activity to determine level of response of the cells to the potentially toxic action of the compounds.
# [4] = 100 mg/kg, day 10 postinfection
# [5] = 100 mg/kg, day 11 postinfection
# [6] = 100 mg/kg, day 12 postinfection
# [7] = 100 mg/kg, day 13 postinfection
# [8] = 100 mg/kg, day 14 postinfection
compound,measurement,setting,value
"C[C@@H]1[C@H](N)[C@H]2C[C@@H]1c1ccccc12 (relative stereo) [IV, 1,2,3,4-tetrahydro-1,4-methanonaphthalen-endo-3-methyl-endo-2-amine]",relative antiviral activity,influenza viruses,relatively low antiviral activity
N[C@H]1C[C@@H]2C[C@H]1c1ccccc12 (relative stereo) [Compound I],MTD,[1],≤ 100 mg/kg
same,LD50,"[1]; ip, 50% toxic dose LD50, acute, I/P, acute",100 mg/kg
same,LD50,"[1]; ip, 50% toxic dose LD50, subacute, I/P, subacute",100 mg/kg
same,LD50,"[1]; po, 50% toxic dose LD50, acute, P/O, acute",275 mg/kg
same,LD50,"[1]; po, 50% toxic dose LD50, subacute, P/O, subacute",250 to 275 mg/kg
same,"Maximal non-toxic dose LD0, acute",mice; I/P,125 mg/kg
same,"Maximal non-toxic dose LD0, subacute",mice; I/P,100 mg/kg
same,"Maximal non-toxic dose LD0, acute",mice; P/O,250 mg/kg
same,"Maximal non-toxic dose LD0, subacute",mice; P/O,225 mg/kg
same,Survivors %,[2]; 40 mg/kg,8.3%
same,Survivors S/T,[2]; 40 mg/kg,1/12
same,Cumulative mortality %,"[2]; 40 mg/kg, day 8 postinfection",8.3%
same,Cumulative mortality N,"[2]; 40 mg/kg, day 8 postinfection",1
same,Cumulative mortality %,"[2]; 40 mg/kg, day 9 postinfection",41.7%
same,Cumulative mortality N,"[2]; 40 mg/kg, day 9 postinfection",5
same,Cumulative mortality %,"[2]; 40 mg/kg, day 10 postinfection",58.3%
same,Cumulative mortality N,"[2]; 40 mg/kg, day 10 postinfection",7
same,Cumulative mortality %,"[2]; 40 mg/kg, day 11 postinfection",75.0%
same,Cumulative mortality N,"[2]; 40 mg/kg, day 11 postinfection",9
same,Cumulative mortality %,"[2]; 40 mg/kg, day 12 postinfection",83.3%
same,Cumulative mortality N,"[2]; 40 mg/kg, day 12 postinfection",10
same,Cumulative mortality %,"[2]; 40 mg/kg, day 13 postinfection",91.6%
same,Cumulative mortality N,"[2]; 40 mg/kg, day 13 postinfection",11
same,Cumulative mortality %,"[2]; 40 mg/kg, day 14 postinfection",91.6%
same,Cumulative mortality N,"[2]; 40 mg/kg, day 14 postinfection",11
same,Survivors %,[2]; 55 mg/kg,8.3%
same,Survivors S/T,[2]; 55 mg/kg,1/12
same,Cumulative mortality %,"[2]; 55 mg/kg, day 8 postinfection",8.3%
same,Cumulative mortality N,"[2]; 55 mg/kg, day 8 postinfection",1
same,Cumulative mortality %,"[2]; 55 mg/kg, day 9 postinfection",16.7%
same,Cumulative mortality N,"[2]; 55 mg/kg, day 9 postinfection",2
same,Cumulative mortality %,"[2]; 55 mg/kg, day 10 postinfection",41.7%
same,Cumulative mortality N,"[2]; 55 mg/kg, day 10 postinfection",5
same,Cumulative mortality %,"[2]; 55 mg/kg, day 11 postinfection",58.3%
same,Cumulative mortality N,"[2]; 55 mg/kg, day 11 postinfection",7
same,Cumulative mortality %,"[2]; 55 mg/kg, day 12 postinfection",75.0%
same,Cumulative mortality N,"[2]; 55 mg/kg, day 12 postinfection",9
same,Cumulative mortality %,"[2]; 55 mg/kg, day 13 postinfection",91.6%
same,Cumulative mortality N,"[2]; 55 mg/kg, day 13 postinfection",11
same,Cumulative mortality %,"[2]; 55 mg/kg, day 14 postinfection",91.6%
same,Cumulative mortality N,"[2]; 55 mg/kg, day 14 postinfection",11
same,Survivors %,[2]; 70 mg/kg,50.0%
same,Survivors S/T,[2]; 70 mg/kg,6/12
same,Cumulative mortality %,"[2]; 70 mg/kg, day 8 postinfection",8.3%
same,Cumulative mortality N,"[2]; 70 mg/kg, day 8 postinfection",1
same,Cumulative mortality %,"[2]; 70 mg/kg, day 9 postinfection",8.3%
same,Cumulative mortality N,"[2]; 70 mg/kg, day 9 postinfection",1
same,Cumulative mortality %,"[2]; 70 mg/kg, day 10 postinfection",41.7%
same,Cumulative mortality N,"[2]; 70 mg/kg, day 10 postinfection",5
same,Cumulative mortality %,"[2]; 70 mg/kg, day 11 postinfection",50.0%
same,Cumulative mortality N,"[2]; 70 mg/kg, day 11 postinfection",6
same,Cumulative mortality %,"[2]; 70 mg/kg, day 12 postinfection",50.0%
same,Cumulative mortality N,"[2]; 70 mg/kg, day 12 postinfection",6
same,Cumulative mortality %,"[2]; 70 mg/kg, day 13 postinfection",50.0%
same,Cumulative mortality N,"[2]; 70 mg/kg, day 13 postinfection",6
same,Cumulative mortality %,"[2]; 70 mg/kg, day 14 postinfection",50.0%
same,Cumulative mortality N,"[2]; 70 mg/kg, day 14 postinfection",6
same,Survivors %,[2]; 85 mg/kg,50.0%
same,Survivors S/T,[2]; 85 mg/kg,6/12
same,Cumulative mortality %,"[2]; 85 mg/kg, day 8 postinfection",0%
same,Cumulative mortality N,"[2]; 85 mg/kg, day 8 postinfection",0
same,Cumulative mortality %,"[2]; 85 mg/kg, day 9 postinfection",8.3%
same,Cumulative mortality N,"[2]; 85 mg/kg, day 9 postinfection",1
same,Cumulative mortality %,"[2]; 85 mg/kg, day 10 postinfection",25.0%
same,Cumulative mortality N,"[2]; 85 mg/kg, day 10 postinfection",3
same,Cumulative mortality %,"[2]; 85 mg/kg, day 11 postinfection",33.3%
same,Cumulative mortality N,"[2]; 85 mg/kg, day 11 postinfection",4
same,Cumulative mortality %,"[2]; 85 mg/kg, day 12 postinfection",50.0%
same,Cumulative mortality N,"[2]; 85 mg/kg, day 12 postinfection",6
same,Cumulative mortality %,"[2]; 85 mg/kg, day 13 postinfection",50.0%
same,Cumulative mortality N,"[2]; 85 mg/kg, day 13 postinfection",6
same,Cumulative mortality %,"[2]; 85 mg/kg, day 14 postinfection",50.0%
same,Cumulative mortality N,"[2]; 85 mg/kg, day 14 postinfection",6
same,Survivors %,[2]; 100 mg/kg,66.4%
same,Survivors S/T,[2]; 100 mg/kg,8/12
same,Cumulative mortality %,"[2]; 100 mg/kg, day 8 postinfection",0%
same,Cumulative mortality N,"[2]; 100 mg/kg, day 8 postinfection",0
same,Cumulative mortality %,"[2]; 100 mg/kg, day 9 postinfection",0%
same,Cumulative mortality N,"[2]; 100 mg/kg, day 9 postinfection",0
same,Cumulative mortality %,[2]; [4],16.7%
same,Cumulative mortality N,[2]; [4],2
same,Cumulative mortality %,[2]; [5],25.0%
same,Cumulative mortality N,[2]; [5],3
same,Cumulative mortality %,[2]; [6],33.3%
same,Cumulative mortality N,[2]; [6],4
same,Cumulative mortality %,[2]; [7],33.3%
same,Cumulative mortality N,[2]; [7],4
same,Cumulative mortality %,[2]; [8],33.3%
same,Cumulative mortality N,[2]; [8],4
same,inhibition at 40 µg/mL,Influenza (swine); 40 μg/ml,0%
same,% Inhibition,"Influenza (swine); 50 μg/ml, listed as 1,2,3,4-TETRAHYDRO-1,4-[…]-ENDO-2-AMINE.HCl",7%
same,inhibition at 80 µg/mL,Influenza (swine); 80 μg/ml,90%
same,inhibition at 90 µg/mL,Influenza (swine); 90 μg/ml,97%
same,inhibition at 100 µg/mL,Influenza (swine); 100 μg/ml,100%
same,inhibition at 40 µg/mL,Influenza A2 /Aichi/3/68; 17.8 TCID50,13%
same,inhibition at 40 µg/mL,Influenza A2 /Aichi/3/68; 178 TCID50,0%
same,inhibition at 30 µg/mL,Influenza A2 /Aichi/3/68; 17.8 TCID50,0%
same,inhibition at 30 µg/mL,Influenza A2 /Aichi/3/68; 178 TCID50,0%
same,inhibition at 50 µg/mL,Influenza A2 /Aichi/3/68; 17.8 TCID50,30%
same,inhibition at 50 µg/mL,Influenza A2 /Aichi/3/68; 178 TCID50,10%
same,inhibition at 60 µg/mL,Influenza A2 /Aichi/3/68; 17.8 TCID50,87%
same,inhibition at 60 µg/mL,Influenza A2 /Aichi/3/68; 178 TCID50,37%
same,inhibition at 70 µg/mL,Influenza A2 /Aichi/3/68; 17.8 TCID50,90%
same,inhibition at 70 µg/mL,Influenza A2 /Aichi/3/68; 178 TCID50,53%
same,inhibition at 80 µg/mL,Influenza A2 /Aichi/3/68; 17.8 TCID50,97%
same,inhibition at 80 µg/mL,Influenza A2 /Aichi/3/68; 178 TCID50,77%
same,inhibition at 90 µg/mL,Influenza A2 /Aichi/3/68; 17.8 TCID50,97%
same,inhibition at 90 µg/mL,Influenza A2 /Aichi/3/68; 178 TCID50,80%
same,inhibition at 100 µg/mL,Influenza A2 /Aichi/3/68; 17.8 TCID50,97%
same,inhibition at 100 µg/mL,Influenza A2 /Aichi/3/68; 178 TCID50,90%
same,CC50,"[3]; 50% inhibition of cell growth, read-out: Cytotoxicity CTD50",> 100 µg/mL
same,MNTC,"[3]; maximal non-toxic concentration, read-out: Cytotoxicity CTD0",> 100 µg/mL
